Structures are written as SMILES. pEC50: −log10 of the molar value. Several values for one entry are separate records, joined by “and”; a condition that tells them apart may be missing. Equal values may be shown once. Where a name gives a salt, the structure may show the parent alone. Read-outs that look alike come from different tables or passages of the source. Where only a bound is given, the exact number is not on record here.

In data set [1] the test system is T. cruzi (Tulahuen strain). As to the kind of experiment: microbe, parasite or virus in culture. It counts as cell-based, Trypanosoma cruzi. Conditions: for activity at 10 µM: 120 h, read-out: T. cruzi % growth @ 10 uM (Amastigotes); for pEC50: read-out: T. cruzi EC50. A digest of the protocol:
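Tulahuen parasites expressing beta-galactosidase were added (1×10^4 trypomastigotes/well) to 3T3 fibroblasts plated 24 h earlier, 4 h before compound (10 µM final).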

The subject of the next data set is 3T3 fibroblast cells. As to the kind of experiment: cells. In kind it is cell-based, murine. Conditions: for activity at 10 µM: Mus musculus, NIH3T3, 72 h, read-out: Mammalian (3T3) cell % growth at 10 uM.
[2] abbreviates: Trypanosoma cruzi, TULAHUEN, Fibroblast, 10 uM, Table S2.
Where [3] appears, read: Trypanosoma cruzi, TULAHUEN, Fibroblast, Table S2, amastigotes.
Where [4] appears, read: Trypanosoma cruzi, TULAHUEN, Fibroblast.

`CC1COC2=C1C(=O)C(=O)c1c2ccc2c1CCCC2(C)C` (stereo not drawn) [CRYPTOTANSHINONE, 6,6,14-trimethyl-12-oxatetracyclo[8.7.0.0^{2,7}.0^{11,15}]heptadeca-1(10),2(7),8,11(15)-tetraene-16,17-dione]: the activity at 10 µM in data set [1] (setting [2]) worked out at 4.5%; with 3T3 fibroblast cells (10 uM, Table S2), 87%.

Consider `CC(C)COCC(CN(Cc1ccccc1)c1ccccc1)N1CCCC1` (stereo not drawn) [BEPRIDIL, N-benzyl-N-[3-(2-methylpropoxy)-2-(pyrrolidin-1-yl)propyl]aniline hydrochloride], for which the activity at 10 µM in data set [1] (setting [2]) was 24.4%; in the data set on 3T3 fibroblast cells (10 uM, Table S2) it was 89.6%.

Take `COc1ccc2c(c1)[nH]c1c(C)nccc12` [HARMINE, 7-methoxy-1-methyl-9H-pyrido[3,4-b]indole]: the activity at 10 µM in data set [1] (setting [2]) stood at 7.5%; in the data set with 3T3 fibroblast cells (10 uM, Table S2), 87.2%.

In the case of `COC(=O)C1(C)CCCC2(C)c3ccc(C(C)C)cc3C(=O)CC12` (stereo not drawn) [7-OXOC[…], METHYL ESTER, methyl 1,4a-dimethyl-9-oxo-7-(propan-2-yl)-1,2,3,4,4a,9,10,10a-octahydrophenanthrene-1-carboxylate], the activity at 10 µM was 5.1% in data set [1] (setting [2]) and 91.8% in the data set on 3T3 fibroblast cells (10 uM, Table S2).

With `CC(=O)OC1CC2C(C)(C)C(O)CCC2(C)C2CCC3(C)C(c4ccoc4)OC(=O)C4OC43C12C` (stereo not drawn) [beta-DIHYDROGEDUNOL, 7-(furan-3-yl)-15-hydroxy-1,8,12,16,16-pentamethyl-5-oxo-3,6-dioxapentacyclo[9.8.0.0^{2,4}.0^{2,8}.0^{12,17}]nonadecan-19-yl acetate], the activity at 10 µM was determined as 21.8% in data set [1] (setting [2]) and 76.3% in the data set on 3T3 fibroblast cells (10 uM, Table S2).

As to `CC(C)c1ccc2c(c1O)CCC1C3=C(CCC21C)C(=O)OC3` (stereo not drawn) [TRIPTOPHENOLIDE, 6-hydroxy-1-methyl-5-(propan-2-yl)-13-oxatetracyclo[8.7.0.0^{2,7}.0^{11,15}]heptadeca-2,4,6,11(15)-tetraen-14-one], the activity at 10 µM in data set [1] (setting [2]) is 13.8%; in the data set on 3T3 fibroblast cells (10 uM, Table S2) it was 83.1%.

For the compound `COc1ccc2c(c1)OC[C@@H](Cc1ccc(OC)c(OC)c1)[C@@H]2O` [3-DESHYDRO[…] ETHER], the activity at 10 µM in data set [1] (setting [2]) worked out at 24.9%; in the data set with 3T3 fibroblast cells (10 uM, Table S2), 80.4%.

Regarding `COc1cc2nc(N3CCN(C(=O)c4ccco4)CC3)nc(N)c2cc1OC` [PRAZOSIN HYDROCHLORIDE, 2-{4-[(furan-2-yl)carbonyl]piperazin-1-yl}-6,7-dimethoxyquinazolin-4-amine hydrochloride], the activity at 10 µM in data set [1] (setting [2]) was 1.8%; with 3T3 fibroblast cells (10 uM, Table S2), 70.7%. The pEC50 in data set [1] (setting [3]) is 5.08; in data set [1] (setting [4]) it was over 5.00.

With `COc1ccc(CCN2CCC(Nc3nc4ccccc4n3Cc3ccc(F)cc3)CC2)cc1` [ASTEMIZOLE, 1-[(4-fluorophenyl)methyl]-N-{1-[2-(4-methoxyphenyl)ethyl]piperidin-4-yl}-1H-1,3-benzodiazol-2-amine], the activity at 10 µM in data set [1] (setting [2]) came out at 11.6%; in the data set with 3T3 fibroblast cells (10 uM, Table S2), 100%.

As for `C[C@@H]1CC[C@@]23CCC4(C)[C@@](C=CC5[C@@]6(C)CCC(=O)C(C)(C)C6CC[C@]54C)(OC2=O)C3[C@H]1C` (stereo partly drawn) [3-OXOURSAN (28-13)OLIDE], the activity at 10 µM in data set [1] (setting [2]) was 11.1%; with 3T3 fibroblast cells (10 uM, Table S2) it was 100%.

Take `COC(=O)C1=C(C)NC(C)=C(C(=O)OCCN(C)Cc2ccccc2)C1c1cccc([N+](=O)[O-])c1` (stereo not drawn) [NICARDIPINE, 3-{2-[benzyl(methyl)amino]ethyl} 5-methyl 2,6-dimethyl-4-(3-nitrophenyl)-1,4-dihydropyridine-3,5-dicarboxylate]: the activity at 10 µM in data set [1] (setting [2]) turned out to be 2%; with 3T3 fibroblast cells (10 uM, Table S2), 99.8%. In addition, the pEC50 in data set [1] (setting [3]) and in data set [1] (setting [4]) was 5.23 each time.

`COc1ccc(Cc2nccc3cc(OC)c(OC)cc23)cc1OC` [PAPAVERINE, 1-[(3,4-dimethoxyphenyl)methyl]-6,7-dimethoxyisoquinoline hydrochloride]: the activity at 10 µM stood at 8.4% in data set [1] (setting [2]) and 93.1% with 3T3 fibroblast cells (10 uM, Table S2).

Consider `CC(C)=CCc1c(O)cc2occ(-c3ccc4c(c3)OCO4)c(=O)c2c1O` [DERRUBONE], for which the activity at 10 µM in data set [1] (setting [2]) came to 22.8%; in the data set with 3T3 fibroblast cells (10 uM, Table S2), 75.4%.

Take `CC(C)C(C)/C=C/C(C)C1CCC2C3=CC=C4CC(O)CCC4(C)C3CCC21C` (stereo not drawn) [ERGOSTEROL, 14-[(3E)-5,6-dimethylhept-3-en-2-yl]-2,15-dimethyltetracyclo[8.7.0.0^{2,7}.0^{11,15}]heptadeca-7,9-dien-5-ol]: the activity at 10 µM is 6% in data set [1] (setting [2]) and 99.6% in the data set with 3T3 fibroblast cells (10 uM, Table S2).

As for `COc1ccc(-c2oc3ccccc3c(=O)c2O)cc1OC` [3-HYDROXY-3',4'-DIMETHOXYFLAVONE], the activity at 10 µM in data set [1] (setting [2]) was 5.2%; in the data set on 3T3 fibroblast cells (10 uM, Table S2) it was 99.2%.

`O=c1c(-c2cc(O)c(O)c(O)c2)coc2cc(O)c(O)c(O)c12` [IRIGENOL, 5,6,7-trihydroxy-3-(3,4,5-trihydroxyphenyl)-4H-chromen-4-one]: the activity at 10 µM in data set [1] (setting [2]) was determined as 5.7%; in the data set with 3T3 fibroblast cells (10 uM, Table S2) it was 73.7%.

Consider `CCOC(=O)C(CCc1ccccc1)NC1CCc2ccccc2N(CC(=O)O)C1=O` (stereo not drawn) [BENAZEPRIL HYDROCHLORIDE, 2-{3-[(1-ethoxy-1-oxo-4-phenylbutan-2-yl)amino]-2-oxo-2,3,4,5-tetrahydro-1H-1-benzazepin-1-yl}acetic acid hydrochloride], for which the activity at 10 µM in data set [1] (setting [2]) worked out at 1%; with 3T3 fibroblast cells (10 uM, Table S2), 66.8%.

On to `CC1(C)C(=O)C=CC2(C)C1CC(=O)C1(C)C2CCC2(C)C(c3ccoc3)OC(=O)C3OC321` (stereo not drawn) [DEACETOXY-7-OXOGEDUNIN, 7-(furan-3-yl)-1,8,12,16,16-pentamethyl-3,6-dioxapentacyclo[9.8.0.0^{2,4}.0^{2,8}.0^{12,17}]nonadec-13-ene-5,15,19-trione], for which the activity at 10 µM in data set [1] (setting [2]) was 4.9%; with 3T3 fibroblast cells (10 uM, Table S2) it was 75.8%.

For the compound `CCN(CCCCOC(=O)c1ccc(OC)c(OC)c1)C(C)Cc1ccc(OC)cc1` (stereo not drawn) [MEBEVERINE, 4-{ethyl[1-(4-methoxyphenyl)propan-2-yl]amino}butyl 3,4-dimethoxybenzoate], the activity at 10 µM stood at 4.1% in data set [1] (setting [2]) and 92.3% in the data set on 3T3 fibroblast cells (10 uM, Table S2).

In the case of `COc1cc2c(cc1OC)-c1cc3ccc(OC)c(OC)c3c[n+]1CC2.[Cl-]` [PALMATINE, 3,4,10,11-tetramethoxy-7,8-dihydro-6000000l^5-azatetraphen-6-ylium l^3-chloridyl], in data set [1] (10 uM, Table S2), the “T. cruzi % growth @ 10 uM (Amastigotes)” value is 8.1% and 11.5%. Besides, the “Mammalian (3T3) cell % growth at 10 uM” value in the data set on 3T3 fibroblast cells (10 uM, Table S2) was 100.0% and 95.9%.

As to `CC(=O)OC1CC2C(C)(C)C(=O)C3OC3C2(C)C2CCC3(C)C(c4ccoc4)OC(=O)C4OC43C12C` (stereo not drawn) [EPOXYGEDUNIN, 7-(furan-3-yl)-1,8,12,17,17-pentamethyl-5,16-dioxo-3,6,14-trioxahexacyclo[9.9.0.0^{2,4}.0^{2,8}.0^{12,18}.0^{13,15}]icosan-20-yl acetate], the activity at 10 µM in data set [1] (setting [2]) was 4.4%; in the data set with 3T3 fibroblast cells (10 uM, Table S2), 73.4%.

As for `COC(=O)C[C@H]1C(C)(C)[C@@H](O)[C@@H]2CC3=C4CC(O)O[C@@H](c5ccoc5)[C@]4(C)CCC3[C@@]1(C)C2=O` (stereo partly drawn) [3,16-DIDEOXYMEXICANOLIDE-3beta-DIOL], the activity at 10 µM in data set [1] (setting [2]) amounted to 22.1%; with 3T3 fibroblast cells (10 uM, Table S2), 99.8%.

`C=CCN(C)CCCCCCOc1ccc(C(=O)c2ccc(Br)cc2)c(F)c1` [Ro 48-8071]: the pEC50 in data set [1] (intracellular amastigotes, 5 days, separate assays separated by semicolons) was 6.39. The CC50 in the data set with 3T3 fibroblast cells (3T3 fibroblasts, 72 hours, separate assays separated by semicolons, read-out: Mammalian cell CC50) turned out to be 7.4 µM.

Regarding `COC(=O)C1C2CC3c4[nH]c5cc(OC)ccc5c4CCN3CC2CC(OC(=O)c2cc(OC)c(OC)c(OC)c2)C1OC` (stereo not drawn) [RESERPINE, methyl 6,18-dimethoxy-17-[(3,4,5-trimethoxyphenyl)carbonyloxy]-3,13-diazapentacyclo[11.8.0.0^{2,10}.0^{4,9}.0^{15,20}]henicosa-2(10),4(9),5,7-tetraene-19-carboxylate], the activity at 10 µM in data set [1] (setting [2]) was 4%; in the data set with 3T3 fibroblast cells (10 uM, Table S2) it was 100%. For the same compound, the pEC50 in data set [1] (setting [3]) is 5.22; in data set [1] (setting [4]) it was over 5.00.

In the case of `O=C(/C=C(/O)c1ccccc1)c1ccccc1O` [2',beta-DIHYDROXYCHALCONE, (2E)-3-hydroxy-1-(2-hydroxyphenyl)-3-phenylprop-2-en-1-one], the activity at 10 µM in data set [1] (setting [2]) was determined as 10%; with 3T3 fibroblast cells (10 uM, Table S2), 100%.

For the compound `CC(=O)OC1(C(C)=O)CCC2C3C=C(Cl)C4=CC(=O)CCC4(C)C3CCC21C` (stereo not drawn) [CHLORMADINONE ACETATE, 14-acetyl-8-chloro-2,15-dimethyl-5-oxotetracyclo[8.7.0.0^{2,7}.0^{11,15}]heptadeca-6,8-dien-14-yl acetate], the activity at 10 µM in data set [1] (setting [2]) is 9.7%; in the data set with 3T3 fibroblast cells (10 uM, Table S2), 97.4%.

Consider `Clc1ccc(COC(Cn2ccnc2)c2ccc(Cl)cc2Cl)c(Cl)c1` (stereo not drawn) [Miconazole, 1-[2-(2,4-dichlorophenyl)-2-[(2,4-dichlorophenyl)methoxy]ethyl]-1H-imidazole], for which the activity at 10 µM was found to be 0.4% in data set [1] (setting [2]) and 100% in the data set on 3T3 fibroblast cells (10 uM, Table S2).

For the compound `Clc1ccc(COC(Cn2ccnc2)c2ccc(Cl)cc2Cl)cc1` (stereo not drawn) [ECONAZOLE, 1-{2-[(4-chlorophenyl)methoxy]-2-(2,4-dichlorophenyl)ethyl}-1H-imidazole], the activity at 10 µM worked out at 2.4% in data set [1] (setting [2]) and 100% in the data set with 3T3 fibroblast cells (10 uM, Table S2).

For `COC(=O)c1cc(O)c(=O)c2c(O)c(O)ccc2c1` [methyl 3,4,6-trihydroxy-5-oxo-5H-benzo[7]annulene-8-carboxylate], the activity at 10 µM in data set [1] (setting [2]) was found to be 18.2%; in the data set on 3T3 fibroblast cells (10 uM, Table S2), 92.2%.

As to `COC(=O)CCC(C)C1CCC2C3C(O)CC4CC(O)CCC4(C)C3CC(O)C12C` (stereo not drawn) [CHOLIC ACID, METHYL ESTER, methyl 4-{5,9,16-trihydroxy-2,15-dimethyltetracyclo[8.7.0.0^{2,7}.0^{11,15}]heptadecan-14-yl}pentanoate], the activity at 10 µM in data set [1] (setting [2]) is 22.6%; in the data set with 3T3 fibroblast cells (10 uM, Table S2) it was 81%.

In general, pEC50 refers to the EC50 on a negative log10 scale, so that one unit is a factor of ten. A word on the CC50: it is the concentration that lowers cell viability or growth by half.

The record behind these values is publication PMC4102417 (PLoS Neglected Tropical Diseases, 2014).
